Where two headings read alike, the source gives them in different places.
What was measured:
[1] = system: liver cancer (3 cell lines); assay: CellTiter-Glo Viability Assay, liver cancer; type: cell-based; settings: Homo sapiens, inhibition of cancer cell proliferation
CLK2 = biological target: T1, CLK2 (Homo sapiens, UniProt P49760); assay: CLK2 kinase activity assay (Z-lyte, Ser/Thr 6 peptide); type: biochemical; settings: recombinant CLK2 kinase, ATP 60 μM; read-out: EC50
T1 construct: purchased Thermo Fisher (Life Technologies), Z'-LYTE Kinase Assay Kits
T1 sequence (P49760 whole entry): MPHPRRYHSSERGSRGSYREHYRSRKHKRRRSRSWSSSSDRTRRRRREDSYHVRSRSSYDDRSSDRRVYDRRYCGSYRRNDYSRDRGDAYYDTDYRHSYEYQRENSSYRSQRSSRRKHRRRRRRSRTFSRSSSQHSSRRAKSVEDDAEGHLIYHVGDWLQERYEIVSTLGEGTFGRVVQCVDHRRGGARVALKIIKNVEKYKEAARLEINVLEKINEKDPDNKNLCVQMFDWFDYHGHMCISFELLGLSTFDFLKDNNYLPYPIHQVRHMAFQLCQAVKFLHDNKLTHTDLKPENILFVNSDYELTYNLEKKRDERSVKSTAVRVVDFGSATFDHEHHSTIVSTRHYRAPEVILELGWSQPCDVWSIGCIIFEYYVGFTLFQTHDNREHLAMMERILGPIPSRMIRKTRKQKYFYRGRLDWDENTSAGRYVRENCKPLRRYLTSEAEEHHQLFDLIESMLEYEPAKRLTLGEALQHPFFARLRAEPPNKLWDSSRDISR
Method: All reactions were performed in duplicate.

[2] = system: colorectal cancer (6 cell lines); assay: CellTiter-Glo Viability Assay, colorectal cancer; type: cell-based; settings: Homo sapiens, inhibition of cancer cell proliferation
[3] = system: haematopoietic & lymphoid tumors (13 cell lines); assay: CellTiter-Glo Viability Assay, haematopoietic & lymphoid tumors; type: cell-based; settings: Homo sapiens, inhibition of cancer cell proliferation
all 50 cell lines = assay: CellTiter-Glo Viability Assay, average across all cell lines; type: cell-based; settings: Homo sapiens; across all 50 cell lines; read-out: average EC50 for inhibition of cancer cell proliferation
Procedure, shortened: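 Human cancer cell lines from breast, colorectal, haematopoietic/lymphoid, liver, lung, ovarian, pancreatic and prostate tumours were seeded at 300-3,000 cells/well and exposed to compound in duplicate for four days at 37° C, 5% CO2. Viable cells were measured by ATP luminescence; EC50 values came from dose-response curves.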

BT-549 = assay: CellTiter-Glo Viability Assay, breast cancer; type: cell-based; settings: Homo sapiens, 96 h; BT-549, breast cancer, four days; read-out: EC50
ZR-75-1 = assay: CellTiter-Glo Viability Assay, breast cancer; type: cell-based; settings: Homo sapiens, 96 h; ZR-75-1, breast cancer, four days; read-out: EC50
CAMA1 = assay: CellTiter-Glo Viability Assay, breast cancer; type: cell-based; settings: Homo sapiens, CAMA-1, 96 h; CAMA1, breast cancer, four days; read-out: EC50
MDA-MB-231-Luc = assay: CellTiter-Glo Viability Assay, breast cancer; type: cell-based; settings: Homo sapiens, 96 h; MDA-MB-231-Luc, breast cancer, four days; read-out: EC50
HCC1599 = assay: CellTiter-Glo Viability Assay, breast cancer; type: cell-based; settings: Homo sapiens, 96 h; HCC1599, breast cancer, four days; read-out: EC50
T47D = assay: CellTiter-Glo Viability Assay, breast cancer; type: cell-based; settings: Homo sapiens, 96 h, breast cancer, four days, read-out: EC50
MCF7 = assay: CellTiter-Glo Viability Assay, breast cancer; type: cell-based; settings: Homo sapiens, 96 h; MCF7, breast cancer, four days; read-out: EC50
DU4475 = assay: CellTiter-Glo Viability Assay, breast cancer; type: cell-based; settings: Homo sapiens, DU-4475, 96 h; DU4475, breast cancer, four days; read-out: EC50
[4] = system: prostate cancer (5 cell lines); assay: CellTiter-Glo Viability Assay, prostate cancer; type: cell-based; settings: Homo sapiens
[5] = system: ovarian cancer (4 cell lines); assay: CellTiter-Glo Viability Assay, ovarian cancer; type: cell-based; settings: Homo sapiens, inhibition of cancer cell proliferation
CLK3 = CLK3 (Homo sapiens, UniProt P49761); assay: CLK3 kinase activity assay (Z-lyte, Ser/Thr 18 peptide)
Chain of CLK3 (P49761 whole entry): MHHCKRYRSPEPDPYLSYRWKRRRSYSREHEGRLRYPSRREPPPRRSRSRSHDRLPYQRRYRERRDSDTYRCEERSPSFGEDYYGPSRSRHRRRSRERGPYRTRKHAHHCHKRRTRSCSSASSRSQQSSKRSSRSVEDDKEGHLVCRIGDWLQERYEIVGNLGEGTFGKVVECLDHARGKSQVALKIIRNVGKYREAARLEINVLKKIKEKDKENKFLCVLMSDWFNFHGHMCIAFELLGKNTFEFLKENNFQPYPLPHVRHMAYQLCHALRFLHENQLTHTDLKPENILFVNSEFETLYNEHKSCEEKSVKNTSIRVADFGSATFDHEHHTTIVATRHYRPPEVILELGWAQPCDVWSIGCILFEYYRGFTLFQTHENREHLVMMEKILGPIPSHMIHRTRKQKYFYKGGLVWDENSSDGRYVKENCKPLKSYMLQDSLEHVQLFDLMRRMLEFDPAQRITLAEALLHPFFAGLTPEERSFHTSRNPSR

[6] = system: pancreatic cancer (8 cell lines); assay: CellTiter-Glo Viability Assay, pancreatic cancer; type: cell-based; settings: Homo sapiens, inhibition of cancer cell proliferation
[7] = system: lung cancer (4 cell lines); assay: CellTiter-Glo Viability Assay, lung cancer; type: cell-based; settings: Homo sapiens, inhibition of cancer cell proliferation
[8] = SNU-398, SNU398 cell line, read-out: Liver cancer, EC50 SNU398
[9] = HEPG2 cell line, read-out: Liver cancer, EC50 HEPG2
[10] = PLC/PRF/5 cell line, read-out: Liver cancer, EC50 PLC/PRF/5
[11] = HCT-116, HCT116 cell line, read-out: Colorectal cancer, EC50 (μM) HCT116
[12] = HT-29, HT29 cell line, read-out: Colorectal cancer, EC50 (μM) HT29
[13] = SW-620, SW620 cell line, read-out: Colorectal cancer, EC50 (μM) SW620
[14] = DLD-1 cell line, read-out: Colorectal cancer, EC50 (μM) DLD-1
[15] = SW48 cell line, read-out: Colorectal cancer, EC50 (μM) SW48
[16] = SW480 cell line, read-out: Colorectal cancer, EC50 (μM) SW480
[17] = DND41, DND-41 cell line, read-out: Haematopoietic & Lymphoid tumors, EC50 (μM) DND-41
[18] = MV4-11, MV-4-11 cell line, read-out: Haematopoietic & Lymphoid tumors, EC50 (μM) MV-4-11
[19] = Rec1, REC-1 cell line, read-out: Haematopoietic & Lymphoid tumors, EC50 (μM) REC-1
[20] = SU-DHL-4, SUDHL4 cell line, read-out: Haematopoietic & Lymphoid tumors, EC50 (μM) SUDHL4
[21] = HL-60 cell line, read-out: Haematopoietic & Lymphoid tumors, EC50 (μM) HL-60
[22] = JM1 cell line, read-out: Haematopoietic & Lymphoid tumors, EC50 (μM) JM1
[23] = JURKAT, Clone E6-1 cell line, read-out: Haematopoietic & Lymphoid tumors, EC50 (μM) JURKAT, Clone E6-1
[24] = JeKo-1 cell line, read-out: Haematopoietic & Lymphoid tumors, EC50 (μM) JeKo-1
[25] = KASUMI-1 cell line, read-out: Haematopoietic & Lymphoid tumors, EC50 (μM) KASUMI-1
[26] = Loucy cell line, read-out: Haematopoietic & Lymphoid tumors, EC50 (μM) Loucy
[27] = MOLT-4 cell line, read-out: Haematopoietic & Lymphoid tumors, EC50 (μM) MOLT-4
[28] = TF-1 cell line, read-out: Haematopoietic & Lymphoid tumors, EC50 (μM) TF-1
[29] = TOLEDO cell line, read-out: Haematopoietic & Lymphoid tumors, EC50 (μM) TOLEDO
[30] = DU-145, read-out: Prostate cancer EC50 Du-145
[31] = PC-3, PC3 cell line, inhibition of cancer cell proliferation, read-out: Prostate cancer EC50 PC3
[32] = 22Rv1 cell line, inhibition of cancer cell proliferation, read-out: Prostate cancer EC50 22Rv1
[33] = LNCap clone FGC cell line, inhibition of cancer cell proliferation, read-out: Prostate cancer EC50 LNCap clone FGC
[34] = VCaP (Sigma) cell line, inhibition of cancer cell proliferation, read-out: Prostate cancer EC50 VCaP (Sigma)
[35] = PA-1, PA1 cell line, read-out: Ovarian cancer, EC50 (μM) PA1
[36] = TOV112D, TOV-112D cell line, read-out: Ovarian cancer, EC50 (μM) TOV-112D
[37] = OV-90 cell line, read-out: Ovarian cancer, EC50 (μM) OV-90
[38] = OVCAR-3 cell line, read-out: Ovarian cancer, EC50 (μM) OVCAR-3
[39] = BXPC-3, BxPC3 cell line, read-out: Pancreatic cancer, EC50 BxPC3
[40] = CAPAN-1, Capan1 cell line, read-out: Pancreatic cancer, EC50 Capan1
[41] = Capan-2, Capan2 cell line, read-out: Pancreatic cancer, EC50 Capan2
[42] = MIA PaCa-2 cell line, read-out: Pancreatic cancer, EC50 MIA PaCa-2
[43] = PANC 05.04 cell line, read-out: Pancreatic cancer, EC50 PANC 05.04
[44] = PANC-1 cell line, read-out: Pancreatic cancer, EC50 PANC-1
[45] = UPAFII cell line, read-out: Pancreatic cancer, EC50 UPAFII
[46] = A-427, A427 cell line, read-out: Lung cancer, EC50 (μM) A427
[47] = HCC78, HCC-78 cell line, read-out: Lung cancer, EC50 (μM) HCC-78
[48] = NCI-H460 cell line, read-out: Lung cancer, EC50 (μM) NCI-H460
[49] = NCI-H522 cell line, read-out: Lung cancer, EC50 (μM) NCI-H522

## CN1CCCCN(C)c2nccc3[nH]c(nc23)-c2n[nH]c3ccc(cc23)-c2cncc(c2)C1 [Compound 58]
[1]; [8]
  EC50: 31 nM
[1]; [9]
  EC50: 2110 nM
[1]; [10]
  EC50: 1600 nM
CLK2
  EC50: 1.6 nM
[2]; [11]
  EC50: 0.15 µM
[2]; [12]
  EC50: 0.455 µM
[2]; [13]
  EC50: 0.066 µM
[2]; [14]
  EC50: 0.132 µM
[2]; [15]
  EC50: 0.057 µM
[2]; [16]
  EC50: 0.165 µM
[3]; [17]
  EC50: 0.106 µM
[3]; [18]
  EC50: 0.013 µM
[3]; [19]
  EC50: 0.089 µM
[3]; [20]
  EC50: 0.074 µM
[3]; [21]
  EC50: 1.13 µM
[3]; [22]
  EC50: 0.032 µM
[3]; [23]
  EC50: 0.271 µM
[3]; [24]
  EC50: 0.067 µM
[3]; [25]
  EC50: 0.185 µM
[3]; [26]
  EC50: 0.145 µM
[3]; [27]
  EC50: 0.314 µM
[3]; [28]
  EC50: 0.921 µM
[3]; [29]
  EC50: 0.065 µM
All 50 cell lines
  EC50: 441 nM
BT-549
  EC50: 480 nM
ZR-75-1
  EC50: 519 nM
CAMA1
  EC50: 1020 nM
MDA-MB-231-Luc
  EC50: 505 nM
HCC1599
  EC50: 379 nM
T47D
  EC50: 1240 nM
MCF7
  EC50: 1810 nM
DU4475
  EC50: 131 nM
[4]; [30]
  EC50: 179 nM
[4]; [31]
  EC50: 313 nM
[4]; [32]
  EC50: 121 nM
[4]; [33]
  EC50: 1060 nM
[4]; [34]
  EC50: 350 nM
[5]; [35]
  EC50: 0.147 µM
[5]; [36]
  EC50: 0.292 µM
[5]; [37]
  EC50: 0.847 µM
[5]; [38]
  EC50: 0.162 µM
CLK3
  EC50: 11.9 nM
[6]; [39]
  EC50: 462 nM
[6]; [40]
  EC50: 323 nM
[6]; [41]
  EC50: 249 nM
[6]; [42]
  EC50: 120 nM
[6]; [43]
  EC50: 752 nM
[6]; [44]
  EC50: 578 nM
[6]; [45]
  EC50: 190 nM
[7]; [46]
  EC50: 0.177 µM
[7]; [47]
  EC50: 0.9 µM
[7]; [48]
  EC50: 0.454 µM
[7]; [49]
  EC50: 0.103 µM

## CN1CCN(c2ccc(NC(=O)c3n[nH]c4ccc(-c5cncc(NC(=O)C6CC6)c5)cc34)cn2)CC1 [Compound 60]
[1]; [8]
  EC50: 120 nM
[1]; [9]
  EC50: 452 nM
[1]; [10]
  EC50: 2030 nM
CLK2
  EC50: 0.9 nM
[2]; [11]
  EC50: 0.639 µM
[2]; [12]
  EC50: 2.52 µM
[2]; [13]
  EC50: 0.455 µM
[2]; [14]
  EC50: 1.76 µM
[2]; [15]
  EC50: 0.174 µM
[2]; [16]
  EC50: 0.486 µM
[3]; [17]
  EC50: 0.154 µM
[3]; [18]
  EC50: 0.088 µM
[3]; [19]
  EC50: 1.45 µM
[3]; [20]
  EC50: 0.641 µM
[3]; [21]
  EC50: 3.24 µM
[3]; [22]
  EC50: 0.121 µM
[3]; [23]
  EC50: 1.42 µM
[3]; [24]
  EC50: 0.039 µM
[3]; [25]
  EC50: 0.685 µM
[3]; [26]
  EC50: 0.207 µM
[3]; [27]
  EC50: 0.503 µM
[3]; [28]
  EC50: 3.05 µM
[3]; [29]
  EC50: 0.219 µM
All 50 cell lines
  EC50: 1070 nM
BT-549
  EC50: 734 nM
ZR-75-1
  EC50: 738 nM
CAMA1
  EC50: 252 nM
MDA-MB-231-Luc
  EC50: 557 nM
HCC1599
  EC50: 57 nM
T47D
  EC50: 296 nM
MCF7
  EC50: 1600 nM
DU4475
  EC50: 169 nM
[4]; [30]
  EC50: 1190 nM
[4]; [31]
  EC50: 831 nM
[4]; [32]
  EC50: 360 nM
[4]; [33]
  EC50: 4240 nM
[4]; [34]
  EC50: 3470 nM
[5]; [35]
  EC50: 0.405 µM
[5]; [36]
  EC50: 0.475 µM
[5]; [37]
  EC50: 1.08 µM
[5]; [38]
  EC50: 0.116 µM
CLK3
  EC50: 12.8 nM
[6]; [39]
  EC50: 2680 nM
[6]; [40]
  EC50: 1900 nM
[6]; [41]
  EC50: 1280 nM
[6]; [42]
  EC50: 331 nM
[6]; [43]
  EC50: 1170 nM
[6]; [44]
  EC50: 3850 nM
[6]; [45]
  EC50: 397 nM
[7]; [46]
  EC50: 0.35 µM
[7]; [47]
  EC50: 1.69 µM
[7]; [48]
  EC50: 2.65 µM
[7]; [49]
  EC50: 0.191 µM
